Earlier results in patent US10934405B2, “Synthetic polymer film whose surface has microbicidal activity, plastic product which includes synthetic polymer film, sterilization method with use of surface of synthetic polymer film, photocurable resin composition, and manufacturing method of synthetic polymer film” (Sharp Kabushiki Kaisha, priority 2018, dated 2021).

Conditions: for Water Solubility: YES/NO, TABLE 1A and 1B

| Water Solubility (symbol) (TABLE 6A and 6B) | Compound | Water Solubility |
| --- | --- | --- |
| – | C=COCCOCCOC(=O)C=C [VEEA, 2-(2-vinyloxyethoxy)ethyl acrylate] | YES |
| ◯ | Nc1nc2ncc(CNc3ccc(C(=O)N[C@@H](CCC(=O)O)C(=O)O)cc3)nc2c(=O)[nH]1 [folic acid] | – |
| – | polyethylene glycol (200) diacrylate [Example M282] | YES |
| – | polyethylene glycol (400) diacrylate [Example M280] | YES |
